Laboratory results published in patent US20100298252A1, “METHODS AND COMPOSITIONS FOR OPHTHALMIC TREATMENT OF FUNGAL AND BACTERIAL INFECTIONS” (priority 2004, published 2010).

Assays:
Pseudomonas aeruginosa [1] = assay: MIC and FIC index, microtiter checkerboard / broth dilution; type: cell-based; conditions: Ps. aeruginosa; for MIC Individually Administered, antibiotic: antibiotic alone
Description: (§1) Agents and Chem. 210-217. (1967) and Sparks et al., Vet. Res. Comm. 18, 241-249 (1994), incorporated herein by reference in their entireties. […] Then 0.05 ml of an 18-hour old culture of a test organism, containing 10^6 colony-forming units (CFU)/ml, was added to each well. Controls for the culture and media were included in each plate. Plates were covered and incubated at 37° Celsius for 18-24 hours. […] To generate isobolograms, FICs of the two test solutions were plotted individually on the x-axis and y-axis to determine the effect of combining the two test solutions on bacterial growth. A line that curves away from, the zero point and the coordinates indicates antagonism. […] A numerical score or fractional inhibitory concentration (FIC) index was determined. The FIC index is equal to the sum of the values of FIC for the individual drugs: […] Am. Soc. Microbiol. Williams and Wilkins, Baltimore 1970), incorporated herein by reference in its entirety. […] Ps. aeruginosa, and Ent. faecalis.

Enterococcus faecalis [2] = assay: as above; type: cell-based; conditions: Ent. faecalis; for MIC Individually Administered, antibiotic: antibiotic alone
Description: as §1

Staphylococcus aureus [3] = assay: as above; type: cell-based; conditions: Staph. aureus; for MIC Individually Administered, antibiotic: antibiotic alone
Description: as §1

Pseudomonas aeruginosa [4] = assay: Antibiotic resistance profile by disc diffusion; type: cell-based; design: key: R = resistant; I = intermediate; S = sensitive; conditions: disc diffusion on MHA
Description: (§2) The organisms of this study were isolated from human burn patients. They included strains of methicillin resistant Staphylococcus aureus, and vancomycin resistant strains of Pseudomonas aeruginosa and Enterococcus faecalis. The bacterial isolates were propagated in or on Brain Heart Infusion broth (BHI), Mueller-Hinton Broth (MHB), blood agar (BA), Mueller-Hinton agar (MHA), enterococcus agar (EA), or 2× nutrient agar (2×NA).
(§3) Antibiotic resistance profiles were determined by the disc diffusion method on MHA (5).

Enterococcus faecalis [5] = assay: Antibiotic resistance profile by disc diffusion; type: cell-based; design: key: R = resistant; I = intermediate; S = sensitive; conditions: disc diffusion on MHA
Description: as §2, §3

Staphylococcus aureus [6] = assay: Antibiotic resistance profile by disc diffusion; type: cell-based; design: key: R = resistant; I = intermediate; S = sensitive; conditions: disc diffusion on MHA
Description: as §2, §3

Fusarium sp. 3 = assay: microbe, parasite or virus in culture; type: cell-based
Cladosporium sp. = assay: Antifungal MIC 50 / MIC 90 alone and combined with Tricide; type: cell-based; conditions: antifungal alone
Fusarium sp. 1 = assay: microbe, parasite or virus in culture; type: cell-based;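 also: mean MIC 50 and MIC 90 values against fungal isolates, with percent decrease in MIC when the antifungal is combined with Tricide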
Penicillium sp. = assay: Antifungal MIC 50 / MIC 90 alone and combined with Tricide; type: cell-based
Aspergillus sp. = assay: as above; type: cell-based; conditions: for % decrease MIC 50 / % decrease MIC 90 / MIC 50 combined with Tricide / MIC 90 combined with Tricide: Aspergillus sp.
[7] = system: Paecilomyces variotti ATCC 36257; assay: as above; type: cell-based
Fusarium sp. 2 = assay: microbe, parasite or virus in culture; type: cell-based
Curvularia sp. = assay: Antifungal MIC 50 / MIC 90 alone and combined with Tricide; type: cell-based;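 also: antifungal MIC 50 and MIC 90 values against fungal isolates, with percent figures expressing how much the MIC fell once Tricide was added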
[8] = system: Candidia albicans ATCC 90028; assay: as above; type: cell-based, Candida albicans;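 also: MIC 50 and MIC 90 values are means, and the percent decrease is the drop in MIC when the antifungal is combined with Tricide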
[9] = Fusarium sp. 1, Tricide 540 ug/ml
[10] = Fusarium sp. 1, antifungal alone
[11] = Aspergillus, Aspergiullus sp., antifungal alone
[12] = Paecilomyces variotti ATCC36257
[13] = Paecilomyces variotti, Tricide […]
[14] = Curvilaria sp., Tricide 200 ug/ml
[15] = Curvularia sp., antifungal alone
[16] = Candida albicans, ATCC90028, Candidia albicans ATCC 90028, antifungal alone

NCC[C@H](O)C(=O)N[C@@H]1C[C@H](N)[C@@H](O[C@H]2O[C@H](CN)[C@@H](O)[C@H](O)[C@H]2O)[C@H](O)[C@H]1O[C@H]1O[C@H](CO)[C@@H](O)[C@H](N)[C@H]1O [Amikacin, amikacin]
MIC Individually Administered, antibiotic (Pseudomonas aeruginosa [1]): 1 µg/mL
MIC Individually Administered, antibiotic (Enterococcus faecalis [2]): 2000 µg/mL
MIC Individually Administered, antibiotic (Staphylococcus aureus [3]): 120 µg/mL

O=C(O)CN(CCN(CC(=O)O)CC(=O)O)CC(=O)O [EDTA, ethylenediamenetetracetic acid]
MIC Individually Administered, EDTA (Pseudomonas aeruginosa [1]; EDTA alone in 50 mM Tris): 1250 µM
MIC Individually Administered, EDTA (Enterococcus faecalis [2]; EDTA alone in 50 mM Tris): 15630 µM
MIC Individually Administered, EDTA (Staphylococcus aureus [3]; EDTA alone in 50 mM Tris): 1000 µM

Cc1noc(NS(=O)(=O)c2ccc(N)cc2)c1C [G, sulfisoxazole]
Antibiotic resistance profile (Pseudomonas aeruginosa [4]): R
Antibiotic resistance profile (Enterococcus faecalis [5]): R
Antibiotic resistance profile (Staphylococcus aureus [6]): S

NC[C@H]1O[C@H](O[C@H]2[C@H](O)[C@@H](O[C@H]3O[C@H](CO)[C@@H](O)[C@H](N)[C@H]3O)[C@H](N)C[C@@H]2N)[C@H](O)[C@@H](O)[C@@H]1O [K, kanamycin]
Antibiotic resistance profile (Pseudomonas aeruginosa [4]): R
Antibiotic resistance profile (Enterococcus faecalis [5]): R
Antibiotic resistance profile (Staphylococcus aureus [6]): R

CCn1cc(C(=O)O)c(=O)c2ccc(C)nc21 [NA, nalidixic acid]
Antibiotic resistance profile (Pseudomonas aeruginosa [4]): R
Antibiotic resistance profile (Enterococcus faecalis [5]): R
Antibiotic resistance profile (Staphylococcus aureus [6]): R

C[C@@H]1C/C=C/C=C/C=C/C=C/[C@H](O[C@@H]2O[C@H](C)[C@@H](O)[C@H](N)[C@@H]2O)C[C@@H]2O[C@](O)(C[C@@H](O)C[C@H]3O[C@@H]3/C=C/C(=O)O1)C[C@H](O)[C@H]2C(=O)O [Natamycin, natamycin]
Summary % reduction in MIC 50 using Tricide (Fusarium sp. 3): 100%
Summary % reduction in MIC 90 using Tricide (Fusarium sp. 3): 100%
% decrease MIC 50 (Fusarium sp. 3; Tricide 540 ug/ml): 100%
% decrease MIC 90 (Fusarium sp. 3; Tricide 540 ug/ml): 100%
MIC 50 combined with Tricide (Fusarium sp. 3; Tricide 540 ug/ml): 0 µg/mL
MIC 90 combined with Tricide (Fusarium sp. 3; Tricide 540 ug/ml): 0 µg/mL
MIC50 (Fusarium sp. 3; antifungal alone): > 19.2 µg/mL
MIC90 (Fusarium sp. 3; antifungal alone): > 19.2 µg/mL
MIC50 (Cladosporium sp.): > 19.2 µg/mL
MIC90 (Cladosporium sp.): > 19.2 µg/mL
Summary % reduction in MIC 50 using Tricide (Fusarium sp. 1; Fasarium sp. 1): 100%
Summary % reduction in MIC 90 using Tricide (Fusarium sp. 1; Fasarium sp. 1): 100%
% decrease MIC 50 (Fusarium sp. 1; [9]): 100%
% decrease MIC 90 (Fusarium sp. 1; [9]): 100%
MIC 50 combined with Tricide (Fusarium sp. 1; [9]): 0 µg/mL
MIC 90 combined with Tricide (Fusarium sp. 1; [9]): 0 µg/mL
MIC50 (Fusarium sp. 1; [10]): > 19.2 µg/mL
MIC90 (Fusarium sp. 1; [10]): > 19.2 µg/mL
Summary % reduction in MIC 50 using Tricide (Penicillium sp.): 100%
Summary % reduction in MIC 90 using Tricide (Penicillium sp.): 100%
% decrease MIC 50 (Penicillium sp.; Tricide 200 ug/ml): 100%
% decrease MIC 90 (Penicillium sp.; Tricide 200 ug/ml): 100%
MIC 50 combined with Tricide (Penicillium sp.; Tricide 200 ug/ml): 0 µg/mL
MIC 90 combined with Tricide (Penicillium sp.; Tricide 200 ug/ml): 0 µg/mL
MIC50 (Penicillium sp.; antifungal alone): 9.6 µg/mL
MIC90 (Penicillium sp.; antifungal alone): 19.2 µg/mL
% decrease MIC 50 (Aspergillus sp.; Tricide 200 ug/ml): 93.8%
% decrease MIC 90 (Aspergillus sp.; Tricide 200 ug/ml): 0%
MIC 50 combined with Tricide (Aspergillus sp.; Tricide 200 ug/ml): 1.2 µg/mL
MIC 90 combined with Tricide (Aspergillus sp.; Tricide 200 ug/ml): >19.2 µg/mL
% decrease MIC 50 (Aspergillus sp.; Tricide 400 ug/ml): 100%
% decrease MIC 90 (Aspergillus sp.; Tricide 400 ug/ml): 100%
MIC 50 combined with Tricide (Aspergillus sp.; Tricide 400 ug/ml): 0 µg/mL
MIC 90 combined with Tricide (Aspergillus sp.; Tricide 400 ug/ml): 0 µg/mL
MIC50 (Aspergillus sp.; [11]): > 19.2 µg/mL
MIC90 (Aspergillus sp.; [11]): 19.2 µg/mL
Summary % reduction in MIC 50 using Tricide (Aspergillus sp.; Aspergiullus sp.): 100%
Summary % reduction in MIC 90 using Tricide (Aspergillus sp.; Aspergiullus sp.): 100%
MIC50 ([7]; ATCC36257, Paecilomyces variotti ATCC 36257, antifungal alone, read-out: MIC 50): 2.4 to 4.8 µg/mL
MIC90 ([7]; ATCC36257, Paecilomyces variotti ATCC 36257, antifungal alone, read-out: MIC 90): 9.6 µg/mL
Summary % reduction in MIC 50 using Tricide [7, 12]: 75-87.5%^
Summary % reduction in MIC 90 using Tricide [7, 12]: 50%
% decrease MIC 50 [7, 13]: 75%-87.5%
% decrease MIC 90 [7, 13]: 50%
MIC 50 combined with Tricide [7, 13]: 0.6 µg/mL
MIC 90 combined with Tricide [7, 13]: 4.8 µg/mL
Summary % reduction in MIC 50 using Tricide (Fusarium sp. 2): 100%
Summary % reduction in MIC 90 using Tricide (Fusarium sp. 2): >99%-100%
% decrease MIC 50 (Fusarium sp. 2; Tricide 540 ug/ml): 100%
% decrease MIC 90 (Fusarium sp. 2; Tricide 540 ug/ml): >99-100% ^
MIC 50 combined with Tricide (Fusarium sp. 2; Tricide 540 ug/ml): 0 µg/mL
MIC 90 combined with Tricide (Fusarium sp. 2; Tricide 540 ug/ml): 0 to 1.92 µg/mL
MIC50 (Fusarium sp. 2; antifungal alone): > 19.2 µg/mL
MIC90 (Fusarium sp. 2; antifungal alone): > 19.2 µg/mL
% decrease MIC 50 (Curvularia sp.; [14]): 100%
% decrease MIC 90 (Curvularia sp.; [14]): 100%
MIC 50 combined with Tricide (Curvularia sp.; [14]): 0 µg/mL
Summary % reduction in MIC 50 using Tricide (Curvularia sp.; Curvularia sp.): 100%
Summary % reduction in MIC 90 using Tricide (Curvularia sp.; Curvularia sp.): 100%
MIC50 (Curvularia sp.; [15]): 9.6 µg/mL
MIC90 (Curvularia sp.; [15]): 19.2 µg/mL
MIC50 [8, 16]: > 14.4 µg/mL
MIC90 [8, 16]: > 19.2 µg/mL
% decrease MIC 50 ([8]; Candida albicans, Tricide […]): 99.3%
% decrease MIC 90 ([8]; Candida albicans, Tricide […]): 90%
MIC 50 combined with Tricide ([8]; Candida albicans, Tricide […]): ≦0.10 ug/ml
MIC 90 combined with Tricide ([8]; Candida albicans, Tricide […]): 4.92 µg/mL
Summary % reduction in MIC 50 using Tricide ([8]; Candidia albicans ATCC 90028): 99.3%
Summary % reduction in MIC 90 using Tricide ([8]; Candidia albicans ATCC 90028): 90%

CN(C)[C@@H]1C(O)=C(C(N)=O)C(=O)[C@@]2(O)C(O)=C3C(=O)c4c(O)cccc4[C@@](C)(O)[C@H]3[C@H](O)[C@@H]12 [Oxytetracycline, oxytetracycline]
MIC Individually Administered, antibiotic (Pseudomonas aeruginosa [1]): 3 µg/mL
MIC Individually Administered, antibiotic (Enterococcus faecalis [2]): 50 µg/mL
MIC Individually Administered, antibiotic (Staphylococcus aureus [3]): 0.1 µg/mL

[H]/N=C(/N)N[C@H]1[C@H](O)[C@@H](O)[C@H](O[C@@H]2O[C@@H](C)[C@](O)(C=O)[C@H]2O[C@@H]2O[C@@H](CO)[C@H](O)[C@@H](O)[C@@H]2NC)[C@@H](N/C(N)=N\[H])[C@@H]1O [S, streptomycin]
Antibiotic resistance profile (Pseudomonas aeruginosa [4]): R
Antibiotic resistance profile (Enterococcus faecalis [5]): R
Antibiotic resistance profile (Staphylococcus aureus [6]): S

CN(C)[C@@H]1C(O)=C(C(N)=O)C(=O)[C@@]2(O)C(O)=C3C(=O)c4c(O)cccc4[C@@](C)(O)[C@H]3C[C@@H]12 [Te, tetracycline]
Antibiotic resistance profile (Pseudomonas aeruginosa [4]): R
Antibiotic resistance profile (Enterococcus faecalis [5]): R
Antibiotic resistance profile (Staphylococcus aureus [6]): S

CN[C@H](CC(C)C)C(=O)N[C@H]1C(=O)N[C@@H](CC(N)=O)C(=O)N[C@H]2C(=O)N[C@H]3C(=O)N[C@H](C(=O)N[C@H](C(=O)O)c4cc(O)cc(O)c4-c4cc3ccc4O)[C@H](O)c3ccc(c(Cl)c3)Oc3cc2cc(c3O[C@@H]2O[C@H](CO)[C@@H](O)[C@H](O)[C@H]2O[C@H]2C[C@](C)(N)[C@H](O)[C@H](C)O2)Oc2ccc(cc2Cl)[C@H]1O [Va, vancomycin]
Antibiotic resistance profile (Pseudomonas aeruginosa [4]): R
Antibiotic resistance profile (Enterococcus faecalis [5]): R
Antibiotic resistance profile (Staphylococcus aureus [6]): S

gentamicin [Gm]
Antibiotic resistance profile (Pseudomonas aeruginosa [4]): I
Antibiotic resistance profile (Enterococcus faecalis [5]): R
Antibiotic resistance profile (Staphylococcus aureus [6]): S
